Measurements reported in article PMC8857812 (BMC Complementary Medicine and Therapies, 2022).

Tests used:
Type in all cases: in vitro ADME
CYP2E1 [1] = target: T1, CYP2E1 (Homo sapiens, UniProt P05181); assay: CYP2E1 inhibition in HLMs, chlorzoxazone 6-hydroxylation probe reaction; conditions: 100 μM ECH, p < 0.001 vs Control
T1 construct: tissue PrimeTox M10000.201800; host or cells: pooled human liver microsomes (50 donors)
Experimental: (§1) Eight positive controls were used for different CYPs: 10 μM furafylline for CYP1A2, 50 μM clomethiazole for CYP2E1, 50 μM tranylcypromine for CYP2C19, 1 μM ketoconazole for CYP3A4, 10 μM tranylcypromine for CYP2A6, 5 μM montelukast for CYP2C8, 10 μM sulfaphenazole for CYP2C9, and 10 μM quinidine for CYP2D6. […] The reaction was initiated by adding a newly prepared NADPH generating system, maintained at 37 °C for 30 min, and then terminated by the addition of acetonitrile. The incubation conditions were optimized to assure that the reaction was linear with time and protein concentration. Blank HLMs were incubated as Control. The supernatant was obtained after centrifugation at 14000 r/min, 15 min for LC-MS analysis.
(§2) The quantification for the corresponding metabolites was performed using a validated single LC/MS/MS run at an Ultimate 3000 HPLC system and a TSQ Quantis™ triple quadrupole mass spectrometer equipped with a heated electrospray ionization (ESI) source (Thermo Fisher, USA). […]
(§3) The relative enzyme activity was observed by High-Performance Liquid Chromatography (HPLC)-Mass Spectrometry (MS). IC50 values were calculated by Graphpad Prism 7.

CYP2C19 [2] = target: T2, CYP2C19 (Homo sapiens, UniProt P33261); assay: CYP2C19 inhibition in HLMs, S-mephenytoin 4-hydroxylation probe reaction; conditions: 100 μM ECH, p < 0.001 vs Control
T2 construct: tissue PrimeTox M10000.201800; host or cells: pooled human liver microsomes (50 donors)
Experimental: as §1, §2, §3

CYP3A4 [3] = target: T3, CYP3A4 (Homo sapiens, UniProt P08684); assay: CYP3A4 inhibition in HLMs, testosterone 6β-hydroxylation probe reaction; conditions: 100 μM ECH, p < 0.001 vs Control
T3 construct: tissue PrimeTox M10000.201800; host or cells: pooled human liver microsomes (50 donors)
Experimental: as §1, §2, §3

CYP2A6 = target: T4, CYP2A6 (Homo sapiens, UniProt P11509); assay: CYP2A6 inhibition in HLMs, coumarin 7-hydroxylation probe reaction; conditions: HLM; even in 100 μM concentrations
T4 construct: tissue PrimeTox M10000.201800; host or cells: pooled human liver microsomes (50 donors)
Experimental: as §1
(§4) The quantification for the corresponding metabolites was performed using a validated single LC/MS/MS run at an Ultimate 3000 HPLC system and a TSQ Quantis™ triple quadrupole mass spectrometer equipped with a heated electrospray ionization (ESI) source (Thermo Fisher, USA). The mobile phase was consisted of solvent A (0.01% acetic acid and 5 mmol/L ammonium acetate) and solvent B (methanol-acetonitrile,1:1, v/v) according to the following gradient: 0-0.5 min, B 2%; 0.5-4.0 min, B 2 to 45%; 4.0-6.5 min, B 45 to 60%; 6.5-6.8 min, B 60 to 80%; 6.8-7.2 min, B 80%; 7.2-7.5 min, B 80 to 2%; 7.5-10.0 min, B 2%. […]

CYP2C9 = target: T5, CYP2C9 (Homo sapiens, UniProt P11712); assay: CYP2C9 inhibition in HLMs, diclofenac 4′-hydroxylation probe reaction; conditions: HLM; even in 100 μM concentrations
T5 construct: Phenotyping experiments were conducted by probe reactions of eight HLMs CYPs; tissue PrimeTox M10000.201800; host or cells: pooled human liver microsomes (50 donors)
Experimental: as §1, §4

CYP2D6 = target: T6, CYP2D6 (Homo sapiens, UniProt P10635); assay: CYP2D6 inhibition in HLMs, dextromethorphan O-demethylation probe reaction; conditions: HLM; even in 100 μM concentrations
T6 construct: Phenotyping experiments were conducted by probe reactions of eight HLMs CYPs; tissue PrimeTox M10000.201800; host or cells: pooled human liver microsomes (50 donors)
Experimental: as §1, §4

CYP2E1 [4] = target: T1, CYP2E1; assay: Assessment of time-dependent inhibition of CYP2E1 in HLMs; conditions: 20 μM ECH; incubation 0-30 min
Experimental: (§5) After the first incubation, an aliquot (20 μL) was transferred to another incubation tube, added probe substrates and start the reaction by an NADPH-generating system. After incubation for 0, 5, 10, 15, and 30 min, the corresponding metabolites were determined by HPLC-MS.

CYP2C19 [5] = target: T2, CYP2C19; assay: Assessment of time-dependent inhibition of CYP2C19 in HLMs; conditions: 10 μM ECH; incubation 0-30 min
Experimental: as §5

CYP3A4 [6] = target: T3, CYP3A4; assay: Time-dependent inhibition and inactivation kinetics of CYP3A4 in HLMs
Experimental: as §5
CYPs time-dependent inhibition: Kobs=KinactI/KI+I

CYP2E1 [7] = target: T1, CYP2E1; assay: Inhibition kinetics of CYP2E1 in HLMs (Lineweaver-Burk plots)
Excerpt: (§6) A one enzyme Michaelis Menten model with competitive substrate inhibition: V=VmaxS/Km1+I/KI+Sa
(§7) Michaelis-Menten model with uncompetitive substrate inhibition: V=VmaxS/Km+S1+I/KIKi

CYP2C19 [8] = target: T2, CYP2C19; assay: Inhibition kinetics of CYP2C19 in HLMs (Lineweaver-Burk plots)
Excerpt: as §6, §7

[9] = pre-incubation 0-30 min, ECH 0-50 μM, estimated from curve fitting of Kobs

T1 sequence (P05181 whole entry): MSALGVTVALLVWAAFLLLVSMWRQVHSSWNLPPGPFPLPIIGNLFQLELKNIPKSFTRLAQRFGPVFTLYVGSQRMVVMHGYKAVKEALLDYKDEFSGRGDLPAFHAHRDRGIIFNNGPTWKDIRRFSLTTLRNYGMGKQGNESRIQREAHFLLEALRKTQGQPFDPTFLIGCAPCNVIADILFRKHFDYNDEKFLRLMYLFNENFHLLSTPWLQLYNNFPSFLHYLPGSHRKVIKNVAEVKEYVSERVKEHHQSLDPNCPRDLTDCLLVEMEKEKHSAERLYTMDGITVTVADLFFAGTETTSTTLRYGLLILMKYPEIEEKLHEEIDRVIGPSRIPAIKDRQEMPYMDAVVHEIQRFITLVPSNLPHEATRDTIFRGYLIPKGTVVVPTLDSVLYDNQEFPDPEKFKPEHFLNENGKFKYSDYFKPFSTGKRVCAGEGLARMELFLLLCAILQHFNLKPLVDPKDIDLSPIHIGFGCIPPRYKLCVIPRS
T2 sequence (P33261 whole entry): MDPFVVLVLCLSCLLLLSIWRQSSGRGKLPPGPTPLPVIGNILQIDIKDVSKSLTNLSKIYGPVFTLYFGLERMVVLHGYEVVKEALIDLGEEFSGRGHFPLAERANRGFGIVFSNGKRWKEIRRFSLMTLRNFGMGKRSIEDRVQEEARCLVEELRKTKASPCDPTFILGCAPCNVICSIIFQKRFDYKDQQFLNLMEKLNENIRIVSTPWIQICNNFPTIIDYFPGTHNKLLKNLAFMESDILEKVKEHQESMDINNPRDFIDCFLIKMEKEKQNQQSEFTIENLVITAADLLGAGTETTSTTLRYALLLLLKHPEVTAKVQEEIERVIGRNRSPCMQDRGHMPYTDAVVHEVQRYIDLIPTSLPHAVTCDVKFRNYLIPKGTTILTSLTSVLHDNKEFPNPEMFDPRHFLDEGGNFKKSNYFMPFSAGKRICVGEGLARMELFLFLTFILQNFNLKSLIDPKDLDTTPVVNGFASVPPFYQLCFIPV
T3 sequence (P08684 whole entry): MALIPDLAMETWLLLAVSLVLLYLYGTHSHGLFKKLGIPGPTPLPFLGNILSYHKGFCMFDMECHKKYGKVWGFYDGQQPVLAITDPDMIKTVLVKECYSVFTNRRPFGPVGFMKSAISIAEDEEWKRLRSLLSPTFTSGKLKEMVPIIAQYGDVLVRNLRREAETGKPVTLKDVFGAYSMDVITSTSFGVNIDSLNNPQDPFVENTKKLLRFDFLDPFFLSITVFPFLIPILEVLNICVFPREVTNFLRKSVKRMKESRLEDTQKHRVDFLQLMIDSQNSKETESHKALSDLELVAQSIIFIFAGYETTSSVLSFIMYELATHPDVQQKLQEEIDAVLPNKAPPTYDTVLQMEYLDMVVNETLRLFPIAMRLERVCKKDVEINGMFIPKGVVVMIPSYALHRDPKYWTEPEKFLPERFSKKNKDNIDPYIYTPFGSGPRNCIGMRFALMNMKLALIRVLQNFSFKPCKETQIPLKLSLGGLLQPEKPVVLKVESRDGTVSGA
T4 sequence (P11509 whole entry): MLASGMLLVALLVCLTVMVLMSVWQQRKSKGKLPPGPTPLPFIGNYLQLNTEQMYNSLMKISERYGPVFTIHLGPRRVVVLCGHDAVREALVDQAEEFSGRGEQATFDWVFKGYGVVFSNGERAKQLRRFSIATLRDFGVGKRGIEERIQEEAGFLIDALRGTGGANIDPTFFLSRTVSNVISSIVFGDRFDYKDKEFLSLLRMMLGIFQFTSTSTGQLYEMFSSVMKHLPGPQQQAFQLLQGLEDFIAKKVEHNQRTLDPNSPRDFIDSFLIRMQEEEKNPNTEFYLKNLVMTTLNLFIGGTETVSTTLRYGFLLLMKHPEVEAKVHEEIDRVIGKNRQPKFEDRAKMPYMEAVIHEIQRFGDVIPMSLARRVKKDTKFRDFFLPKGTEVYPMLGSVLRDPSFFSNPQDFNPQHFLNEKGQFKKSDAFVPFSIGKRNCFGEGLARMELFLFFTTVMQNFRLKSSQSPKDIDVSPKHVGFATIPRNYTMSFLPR
T6 sequence (P10635 whole entry): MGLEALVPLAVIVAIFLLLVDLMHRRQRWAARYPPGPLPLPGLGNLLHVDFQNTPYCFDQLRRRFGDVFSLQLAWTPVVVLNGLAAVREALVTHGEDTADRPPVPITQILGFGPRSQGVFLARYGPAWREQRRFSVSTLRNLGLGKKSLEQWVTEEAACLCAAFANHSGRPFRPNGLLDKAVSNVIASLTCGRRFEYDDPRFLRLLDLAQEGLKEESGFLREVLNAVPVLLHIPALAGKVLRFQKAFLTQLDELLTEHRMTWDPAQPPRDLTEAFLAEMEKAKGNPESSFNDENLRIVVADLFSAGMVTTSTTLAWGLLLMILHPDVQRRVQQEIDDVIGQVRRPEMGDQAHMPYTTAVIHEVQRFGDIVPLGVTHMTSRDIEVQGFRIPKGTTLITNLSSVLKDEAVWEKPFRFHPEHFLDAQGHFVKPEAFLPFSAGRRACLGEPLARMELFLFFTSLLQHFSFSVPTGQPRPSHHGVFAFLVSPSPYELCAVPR
T5 sequence (P11712 whole entry): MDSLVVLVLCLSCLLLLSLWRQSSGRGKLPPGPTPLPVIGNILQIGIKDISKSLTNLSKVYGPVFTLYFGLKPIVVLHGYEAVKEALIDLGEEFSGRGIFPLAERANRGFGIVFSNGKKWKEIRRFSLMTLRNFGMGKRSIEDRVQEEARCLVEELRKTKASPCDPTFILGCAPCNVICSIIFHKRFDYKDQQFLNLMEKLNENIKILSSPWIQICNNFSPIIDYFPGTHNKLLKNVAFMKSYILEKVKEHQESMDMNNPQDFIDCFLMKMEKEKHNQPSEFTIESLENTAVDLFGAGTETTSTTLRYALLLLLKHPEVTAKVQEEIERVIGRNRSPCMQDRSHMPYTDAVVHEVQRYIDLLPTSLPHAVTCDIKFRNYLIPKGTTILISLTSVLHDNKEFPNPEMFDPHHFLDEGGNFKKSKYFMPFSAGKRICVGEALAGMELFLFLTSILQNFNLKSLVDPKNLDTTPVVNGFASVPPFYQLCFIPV

Echinacoside
effect on relative activity of CYP2E1 (CYP2E1 [1]): significant decrease | effect on relative activity of CYP2C19 (CYP2C19 [2]): significant decrease | effect on relative activity of CYP3A4 (CYP3A4 [3]): significant decrease | inhibition of CYP2A6 (CYP2A6): no significant inhibition | inhibition of CYP2C9 (CYP2C9): no significant inhibition | inhibition of CYP2D6 (CYP2D6): no significant inhibition | time dependence of CYP2E1 inhibition (CYP2E1 [4]): time-independent | time dependence of CYP2C19 inhibition (CYP2C19 [5]): time-independent | time dependence of CYP3A4 inhibition (CYP3A4 [6]; 50 μM ECH, incubation 0-30 min): time-dependent | KI (time-dependent inhibition of CYP3A4) (CYP3A4 [6]; [9]): 6.63 µM | Kinact (time-dependent inhibition of CYP3A4) (CYP3A4 [6]; [9]): 0.066 min^− 1 | α value for CYP2E1 (CYP2E1 [7]): not 1 | mode of inhibition of CYP2E1 (CYP2E1 [7]; Lineweaver-Burk plots): mixed type | mode of inhibition of CYP2C19 (CYP2C19 [8]): competitive type
